Data taken from ChEMBL document CHEMBL1201862, “PubChem BioAssay data set” (2004).
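These data come from cells grown in 96-well plates and exposed to compound for 48 hours at five concentrations. Abbreviation: GI50, concentration required for 50% inhibition of growth.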 Activity calls are given as the source filed them. Rule as the data show it: active = GI50 up to about 1.1 µM and inactive = higher.

How the values were obtained:
Experiment in all cases: inhibition of tumour cell growth, NCI panel, 48 h
[1] = test system: SR
[2] = test system: NCI/ADR-RES
[3] = test system: MDA-N
[4] = test system: SF-268
[5] = test system: OVCAR-3
[6] = test system: DU-145
[7] = test system: HT-29
[8] = test system: HCC 2998
[9] = test system: NCI-H23
[10] = test system: PC-3
[11] = test system: LOX IMVI
[12] = test system: SK-MEL-5
[13] = test system: SK-MEL-28
[14] = test system: BT-549
[15] = test system: K562
[16] = test system: ACHN
[17] = test system: HCT-116
[18] = test system: RXF 393
[19] = test system: HL-60
[20] = test system: A498

Measured: GI50

CC12CCCC(O)C1CCC1=CC3(CCC12)SCCS3 (centres undefined)
inactive: [1] > 10 µM | [2] > 10 µM | [3] > 10 µM | [4] > 10 µM | [5] > 10 µM | [6] > 10 µM | [7] > 10 µM | [8] > 10 µM | [9] > 10 µM | [10] > 10 µM | [11] > 10 µM | [12] > 10 µM | [13] > 10 µM | [14] > 10 µM | [15] > 10 µM | [16] > 10 µM

Cn1c(SCc2ccc([N+](=O)[O-])cc2)nnc1C12CC3CC(CC(C3)C1)C2
inactive: [17] > 10 µM | [2] > 10 µM | [18] > 10 µM | [3] > 10 µM | [19] > 10 µM | [4] > 10 µM | [5] > 10 µM | [6] > 10 µM | [7] > 10 µM | [8] > 10 µM | [20] > 10 µM | [9] > 10 µM | [10] > 10 µM | [11] > 10 µM | [12] > 10 µM | [13] > 10 µM | [14] > 10 µM | [15] > 10 µM | [16] > 10 µM

COc1ccc(C2SC(=N)Nc3c2c(C)nn3C(=O)c2ccc(Cl)cc2)cc1 (centres undefined)
inactive: [17] > 10 µM | [2] > 10 µM | [18] > 10 µM | [3] > 10 µM | [19] > 10 µM | [4] > 10 µM | [5] > 10 µM | [6] > 10 µM | [7] > 10 µM | [8] > 10 µM | [9] > 10 µM | [10] > 10 µM | [11] > 10 µM | [12] > 10 µM | [13] > 10 µM | [14] > 10 µM | [15] > 10 µM | [16] > 10 µM

CCOC(=O)N/N=C(\Cc1ccc([N+](=O)[O-])cc1)OCC
inactive: [1] > 100 µM | [17] > 100 µM | [2] > 100 µM | [18] > 100 µM | [3] > 100 µM | [4] > 100 µM | [5] > 100 µM | [6] > 100 µM | [7] > 100 µM | [8] > 100 µM | [9] > 100 µM | [10] > 100 µM | [11] > 100 µM | [12] > 100 µM | [14] > 100 µM | [15] > 100 µM | [16] > 100 µM

Nc1nc(N)c2ncn(-c3ccc(Cl)c(Cl)c3)c2n1
inactive: [17] 16.1 µM | [2] 37.7 µM | [18] 12.7 µM | [3] 30.9 µM | [4] 31.7 µM | [5] 14.5 µM | [6] 18.5 µM | [7] 22.2 µM | [8] 27.4 µM | [20] 13.3 µM | [9] 15.9 µM | [10] 24.1 µM | [12] 31.2 µM | [13] 60.5 µM | [14] 21.9 µM | [16] 42.2 µM

C=C[C@@]1(C)CC[C@@H]2[C@@]3(C1)O[C@H]3CC1[C@](C)(C(=O)OC)CCC[C@@]12C (some centres undefined)
inactive: [17] 13.7 µM | [2] 20 µM | [18] 16.1 µM | [3] 22.1 µM | [4] 20.2 µM | [5] 17 µM | [6] 30.4 µM | [7] 14.1 µM | [8] 17.3 µM | [20] 32.5 µM | [9] 24.4 µM | [10] 30.4 µM | [12] 17.8 µM | [13] 21.1 µM | [14] 25.5 µM | [15] 32.8 µM | [16] 16.1 µM

C[Si](C)(C)c1ccc(-c2c3ccc(-c4cc(Br)cc(Br)c4)nc3nc3nc(-c4cc(Br)cc(Br)c4)ccc23)cc1
inactive: [17] > 100 µM | [2] > 100 µM | [3] > 100 µM | [4] > 100 µM | [5] > 100 µM | [6] > 100 µM | [8] > 100 µM | [20] > 100 µM | [9] > 100 µM | [10] > 100 µM | [12] > 100 µM | [13] > 100 µM | [14] > 100 µM | [16] > 100 µM

C/C=C1/CC(C(=O)OC)N(C(=O)OCc2ccccc2)C1=S (centres undefined)
inactive: [17] > 100 µM | [2] > 100 µM | [18] > 100 µM | [3] > 100 µM | [4] > 100 µM | [5] > 100 µM | [6] > 100 µM | [7] > 100 µM | [8] 7.73 µM | [20] > 100 µM | [9] > 100 µM | [10] > 100 µM | [12] > 100 µM | [13] > 100 µM | [14] > 100 µM | [15] > 100 µM | [16] > 100 µM
